Reference: patent publication US20200368267A1, “PROPHYLACTIC AND/OR THERAPEUTIC AGENT FOR AMYOTROPHIC LATERAL SCLEROSIS” (KYOTO UNIVERSITY, priority 2017, published 2020)
Counter-ions that a name gives are not always drawn.

Tests used:
[1] = tested on: MNs with mutant SOD1 gene (L144FVX); assay: Large scale screen using ALS MN (MN survival readout); format: cell-based, human; conditions: for MN index: compounds at final concentration 10 μM added on day 7, cells fixed and stained on day 14, viable MNs stained with βIII-tubulin
Procedure: (§1) iPS cell cells containing LNI cassette were dissociated into single cells using Accutase, and seeded together with 1 μg/ml of doxycycline (TAKARA, Kusatsu, Japan) in N3 medium containing 1 μM retinoic acid, 1 μM SAG, 10 ng/ml BDNF, 10 ng/ml GDNF, and 10 ng/ml NT-3 on a 96 well plate (BD Bioscience) coated with Matrigel. The cells were fixed and stained on days 7 and 14. The number of viable MNs stained with βIII-tubulin was quantified by IN Cell Analyzer 6000 and expressed as the number of day 14/day 7. […] In this assay, therefore, βIII-tubulin positive neurons were defined as MN. Neurite and cell body were detected by optimized fluorescence levels, and the number of cell bodies having neurite was counted as the number of surviving neurons using IN Cell Developer toolbox software 1.9.
iPS cell cells containing LNI cassette were dissociated into single cells using Accutase, and seeded together with 1 ng/ml of doxycycline in N3 medium containing 1 μM RA, 1 μM SAG, 10 ng/ml BDNF, 10 ng/ml GDNF and 10 ng/ml NT-3 on a 96 well plate (BD Bioscience) coated with Matrigel. The libraries used for drug screening were Microsource US Drugs (Microsource Discovery Systems), Microsource International Drugs (Microsource Discovery Systems), and kinase inhibitor purchased from EMD and Selleck Chemicals. Using Integrity and Nextbio data base, existing drugs and test drugs in clinical trials were selected from these libraries and used for throughput screening. […] DMSO was used as a negative control, and kenpaullone, which is a candidate drug for ALS treatment, was used as a positive control. The number of viable MNs stained with βIII-tubulin was quantified by IN Cell Analyzer 6000.

mutant SOD1 Tg mice = assay: ALS model mouse (Tg-G93A SOD1 mouse); format: in vivo; conditions: 5 mg/kg intraperitoneal from 8th week for 5 weeks; mean±SD, n=26 per group; Kaplan-Meier
[2] = tested on: mutant SOD1 ALS MNs (ALS1); assay: MN survival assay and high content analysis; format: cell-based, human; conditions: for MN survival: mutant SOD1 ALS MNs (ALS1), compound added day 7, counted day 14
Procedure: as §1
Short interfering RNA (siRNA) was purchased from Life Technologies (siRNA ID of Src siRNA 1: s13414; siRNA ID of Src siRNA 2: s13413; siRNA ID of c-Abl siRNA 1: s866; siRNA ID of c-Abl siRNA 2: s864; siRNA ID of mTOR siRNA: s604). Scramble siRNA purchased from Life Technologies was used as a negative control of siRNA. iPS cells were dissociated and plated with dox in a 96 well plate. On day 7, siRNA was transfected with Lipofectamine RNAiMAX (Thermo Fisher Scientific). Viable MN was evaluated 4 days after transfection by immunostaining with βIII-tubulin, followed by analysis with IN Cell Analyzer 6000 and IN Cell Developer toolbox software 1.9.

Row | SMILES | MN index [1] | other results
1 | O=C(c1ccc(/C=C/c2n[nH]c3ccccc23)cc1)N1CCNCC1 [KW 2449] | 7.722 | 
2 | CNC(=O)c1ccccc1Sc1ccc2c(/C=C/c3ccccn3)n[nH]c2c1 [axitinib] | 7.353 | 
3 | O=C1Cc2c([nH]c3ccc(Br)cc23)-c2ccccc2N1 [kenpaullone] |  | positive control effect on ALS MN survival ([1]; 50 μM, positive control assays): positive effect was confirmed
4 | COc1cc2nccc(Oc3ccc(NC(=O)Nc4cc(C)on4)c(Cl)c3)c2cc1OC [tivozanib] | 17.26 | 
5 | Cc1cc2nc3c(=O)[nH]c(=O)nc-3n(C[C@H](O)[C@H](O)[C@H](O)CO)c2cc1C [riboflavin] | 9.554 | 
6 | CCN(CC)CCNC(=O)c1c(C)[nH]c(/C=C2\C(=O)Nc3ccc(F)cc32)c1C [sunitinib malate] | 8.133 | 
7 | Cn1cc(C2=C(c3cn(C4CCN(Cc5ccccn5)CC4)c4ccccc34)C(=O)NC2=O)c2ccccc21 [enzastaurin] | 9.841 | 
8 | Cc1cc(Nc2cc(N3CCN(C)CC3)nc(Sc3ccc(NC(=O)C4CC4)cc3)n2)n[nH]1 [VX-680] | 9.578 | 
9 | COc1cc(Nc2c(C#N)cnc3cc(OCCCN4CCN(C)CC4)c(OC)cc23)c(Cl)cc1Cl [bosutinib (SKI-606), bosutinib] | 7.196 | disease onset (mutant SOD1 Tg mice): 123.2 ± 9.1 days; survival time (mutant SOD1 Tg mice): 164.1 ± 9.4 days
10 | O=C(/C=C/C=C/c1ccc2c(c1)OCO2)N1CCCCC1 [piperine] | 7.391 | 
11 | COc1ccc2c(c1OC)C(=O)O[C@@H]2[C@H]1c2cc3c(cc2CCN1C)OCO3 [hydrastine (1R, 9S)] | 7.525 | 
12 | C[C@@H](Oc1cc(-c2cnn(C3CCNCC3)c2)cnc1N)c1c(Cl)ccc(F)c1Cl [PF-2341066] | 7.595 | 
13 | CN1CCc2cccc3c2[C@H]1Cc1ccc(O)c(O)c1-3 [apomorphine hydrochloride] | 7.257 | 
14 | Cc1c(C)c2c(c(C)c1O)CCC(C)(CCCC(C)CCCC(C)CCCC(C)C)O2 (stereo not drawn) [alpha-tochopherol] | 9.456 | 
15 | CCCCOC(=O)c1ccc(N)cc1 [butamben] | 7.391 | 
16 | Cc1ccc(NC(=O)c2ccc(CN3CCN(C)CC3)cc2)cc1Nc1nccc(-c2cccnc2)n1 [imatinib] |  | MN survival [2]: increased MN survival
17 | Cc1nc(N)sc1-c1ccnc(Nc2ccc(N3CCOCC3)cc2)n1 [CYC116] | 8.142 | 
18 | CCN(CC)CCCC(C)Nc1ccnc2cc(Cl)ccc12 (centres unmarked) [chloroquine] |  | effect of autophagy inhibitor on the protective effect of bosutinib in MN survival assay ([2]; added to MNs with bosutinib treatment): decreased the protective effect of bosutinib
19 | CCN(CC)Cc1cc(Nc2ccnc3cc(Cl)ccc23)ccc1O [amodiaquine dihydrochloride] | 8.98 | 
20 | CCCC1O[C@@H]2C[C@H]3[C@@H]4CCC5=CC(=O)C=C[C@]5(C)[C@H]4[C@@H](O)C[C@]3(C)[C@]2(C(=O)CO)O1 (some centres unmarked) [budesonide] | 10.27 | 
21 | Cc1nc(Nc2ncc(C(=O)Nc3c(C)cccc3Cl)s2)cc(N2CCN(CCO)CC2)n1 [dasatinib] | 6.659 | 
22 | CN(C)CCCn1cc(C2=C(c3c[nH]c4ccccc34)C(=O)NC2=O)c2ccccc21 [bisindolylmaleimide I] | 7.963 | 
23 | Cc1cn(-c2cc(NC(=O)c3ccc(C)c(Nc4nccc(-c5cccnc5)n4)c3)cc(C(F)(F)F)c2)cn1 [nilotinib] |  | MN survival [2]: increased MN survival
24 | O=C(O)CCC(=O)c1ccc(-c2ccccc2)cc1 [fenbufen] | 7.224 | 
25 | CCN(CCCCOC(=O)c1ccc(OC)c(OC)c1)C(C)Cc1ccc(OC)cc1 (centres unmarked) [mebeverine hydrochloride] | 6.856 | 
26 | Cc1ccc(Nc2nccc(N(C)c3ccc4c(C)n(C)nc4c3)n2)cc1S(N)(=O)=O [pazopanib hydrochloride] | 9.533 | 
27 | Oc1ccc(O)cc1 [hydroquinone] | 7.957 | 
28 | CC1(C)O[C@@H]2C[C@H]3[C@@H]4C[C@H](F)C5=CC(=O)C=C[C@]5(C)[C@H]4[C@@H](O)C[C@]3(C)[C@]2(C(=O)CO)O1 [flunisolide] | 7.857 | 
29 | COCCNCc1ccc(-c2cc3nccc(Oc4ccc(NC(=S)NC(=O)Cc5ccc(F)cc5)cc4F)c3s2)nc1 [MGCD-265] | 7.623 | 
30 | CCOc1ccn(-c2ccc(F)cc2)c(=O)c1C(=O)Nc1ccc(Oc2ccnc(N)c2Cl)c(F)c1 [BMS 777607] | 8.551 | 
